{"source": "patent US9624491B2", "about": "“Methods and compositions for the detection and treatment of cancer involving miRNAs and miRNA inhibitors and targets” (Memorial Sloan Kettering Cancer Center, priority 2010, dated 2017)", "key": {"[1]": {"tested_on": "NOTCH1-induced T-ALL", "test": "Mouse model of Notch-ICN (NOTCH1)-induced T-ALL, adoptive transfer of transduced HPCs", "type": "in vivo", "conditions": "HPCs expressing NOTCH1-ICN plus miRNA or shRNA transplanted into irradiated recipients", "protocol": "Can miR-19 drive the development of lymphatic malignancies in vivo? Based on the miR-19 expression and translocation data, miR-19 was assessed in a mouse model of T-ALL (Pear, et al., 1996). Briefly, most cases of T-ALL carry mutations in the Notch1 gene, and, like the […] translocation, these generate the constitutively active intracellular domain of NOTCH1 (Notch-ICN) (Weng, et al., 2004). To test miR-19's ability to promote Notch-ICN-induced T-ALL in vivo, HPCs were adoptively transferred into irradiated recipients (FIG. 3d). […] At the same time, 80% of the mice receiving HPCs expressing only Notch-ICN remained disease free (p=0.0003) (FIG. 3e).\nThe mouse models of Notch1-induced T-ALL and the EμMyc lymphoma based on adoptive transfer of retrovirally transduced HPCs have been reported (Pear, et al., 1996), (Wendel, et al., 2004). Data were analyzed in Kaplan-Meier format using the log-rank (Mantel-Cox) test for statistical significance. The p53 loss of heterozygosity polymerase chain reaction (LOH PCR) and immunophenotyping by surface marker analysis were as described (Wendel, et al., 2004).\nA murine model of NOTCH1-induced T-ALL was used to directly test the oncogenic potential of the most promising miRNAs in vivo. Briefly, HPCs were transduced with NOTCH1 together with either empty vector or an miRNA and transplanted into irradiated, syngeneic recipients. Animals were monitored for leukemia onset by regular blood counts (FIG. 22a). […] Typically, animals receiving HPCs transduced with these miRNAs develop an acute leukemia by 75 days, while >80% of vector controls or animals receiving miR-30 (n=5, p=0.15) remain disease free at this time (FIG. 22b). Based on the in vitro screen and prediction, additional miRNAs were tested. […] Thus, miR-19b, miR-20a, miR-26a, miR-223 and also the less abundant miR-27a and miR-148/152 behave as oncogenes in a murine T-ALL model.\nThe mouse T-ALL model has been reported (Pear, et al., 1996), (Wendel, et al., 2004). Data were analyzed in Kaplan-Meier format using the log-rank (Mantel-Cox) test for statistical significance. […]"}, "[2]": {"tested_on": "PTEN, BCL2L11, PHF6, IKZF1, NF1, FBXW7", "test": "3′UTR reporter, quantitative PCR and immunoblot assays of tumor suppressor genes in murine leukemias", "type": "cell-based", "conditions": "murine T-ALLs expressing NOTCH1 and miRNA, mRNA, protein", "protocol": "Immunoblots of whole cell lysates were performed as described (Wendel, et al., 2004). Antibodies were against Bim/Bcl2l11 (AAP-330, 1:1000, Assay Designs), Nf1 (sc67, 1:100, Santa Cruz), Cdc4/Fbxw7 (ab7405, 1:500, Abeam), Ikzf1 (sc-13039, 1:500, Santa Cruz), Phf6 (NB100-79861, 1:1000, Novus Biologicals), Pten (9559, 1:1000, Cell Signaling), tubulin (1:5000; Sigma, B-5-1-2) and actin (1:5000; Sigma, AC-15).\nTotal RNA and miRNA-enriched RNA was extracted using the Allprep DNA/RNA/Protein and miRNeasy Mini kits. Pathological diagnosis was by expert hematopathologists at Weill Cornell Medical Center. cDNA synthesis, PCR and analysis by the ΔΔ Ct method were as described (Mavrakis, et al., 2008) and utilized Taqman Gene Expression Assays: Bcl2l11 (Mm00437796_m1), BCL2L11 (Hs00197982_m1), Pten (Mm01212532_m1), PTEN (Hs02621230_s1), Nf1 (Mm00812430_m1), NF1 (Hs01035104_m1), Ikzf1 (Mm01187878_m1), IKZF1 (Hs00172991_m1), Fbxw7 (Mm00504452_m1), FBXW7 (Hs00217794_m1), Phf6 (Mm00804415_m1), and Mouse GAPD (GAPDH) (4352932, Applied Biosystems). Expression was normalized to RNU6B (001093, Applied Biosystems).\nThe mouse FBXW7 (bp 2793-4139; acc. no. NM_001177773), human NF1 (bp 10033-10666; acc. no NM_000267), human PHF6 (bp position 3271-4299; acc. no. NM_001015877) and Bim (bp. 3155-4773; acc. no. NM_009754) 3′UTR fragments were generated by PCR and cloned into the psi-CHECK-2 vector (Promega) with the exception of the IKZF1 3′UTR, which was purchased from Genecopoeia (cat no. HmiT000397b, by 2343-4471 of UTR). The assays were performed as described (Xiao, et al., 2008)."}}, "data": [{"substance": "miR-148: miRNA, UCAGUGCACUACAGAACUUUGU (SEQ ID NO: 8) (expressed or natural sequence; listed as Homo sapiens)", "values": [{"measurement": "leukemia onset / leukemia-free survival", "setting": "[1]", "value": "significant disease acceleration"}, {"measurement": "regulation of tumor suppressor genes", "setting": "[2]", "value": "regulate IKZF1, NF1 and FBXW7"}]}]}
